Results reported in patent US6335008B1, “Hybrid genes incorporating a DNA fragment containing at least one gene encoding an insecticidal protein and a gene encoding a glutamine synthase inhibitor, plasmids, transformed cyanobacteria expressing such proteins and method for use as biocontrol agent” (priority 1987, dated 2002).

Experiments:
[1] = system: Synechocystis 6803 transformed with pKW 1188; test: Growth on BG-11 agar plate containing PPT or Bialaphos, vector transformant; format: cell-based; details: Bialaphos at 5 micrograms/ml
Method: (§1) Dilution of transformed Synechocystis 6803 was plated on BG-11 agar plate containing PPT (Table 4).

[2] = system: Synechocystis 6803 transformed with pWP3210; test: Growth on BG-11 agar plate containing PPT or Bialaphos, bar gene transformant; format: cell-based; details: Bialaphos at 5 micrograms/ml
Method: as §1

C[C@H](NC(=O)[C@H](C)NC(=O)[C@@H](N)CCP(C)(=O)O)C(=O)O [Bialaphos] was tested, and the “growth on Bialaphos” value [1] was “neither of these two transformants grow” and the “growth on Bialaphos” value [2] was “neither of these two transformants grow”.
